According to US12582720B2, “Compound for preventing or treating lipid metabolism-related diseases” (Fudan University, priority 2020, dated 2026):
Entries after “also recorded” stand apart in the source; their conditions may differ.

How the values were obtained:
[1] = test system: lipid droplets in LC3B knockout HEK293T cells; assay: Lipid droplets in LC3B knockout HEK293T cells; format: cell-based, human; conditions: 5 μM
Description: The effect of conjugated compounds (Compound 1A, Compound 2A, Compound 3A or Compound 4A at a concentration of 5 μM) on lipid droplets in LC3B knockout HEK293T cells was tested by a method similar to Example 2.

[2] = test system: autophagosome-lipid droplet colocalization in MEF cells; assay: Colocalization of autophagosome and lipid droplets in mCherry-LC3B transfected MEF cells; format: cell-based, mouse; conditions: 5 μM, 3 h, compared to DMSO control
Description: (1) In MEF cells, mCherry-LC3B was expressed by cDNA plasmid transfection.
(2) OA was added to the culture medium 30 hours after transfection to induce lipid droplets.
(3) Compounds were added to treat cells 6 hours after induction.
(4) 3 hours after compounds addition, cells were fixed and BODIPY stained.
(5) The coverslips laid in the multi-well plates were removed, and imaged with the Zeiss 880 confocal microscope after mounted to observe the aggregation of LC3 puncta around the lipid droplets.
In MEF cells, mCherry-LC3B was expressed by cDNA plasmid transfection. At 30th hour of overexpression, OA was added into cells for lipid droplet induction. 6 hours later, the compound was added for 3 hours' treatment, and then cells were subjected to immunostaining. […] Lipid droplets (green) were stained with BODIPY stain, and nucleus were indicated with DAPI stain. […] In FIG. 24, the colocalized autophagosome-lipid droplet was marked with circles.

[3] = test system: lipid droplets in SH-SY5Y cells; assay: Lipid droplets in SH-SY5Y cells in the presence of autophagy inhibitor NH4Cl; format: cell-based, human; conditions: with NH4Cl 5 mM, 24 h
Description: By a method similar to Example 4, but after 6 hours from OA induction of lipid droplets, while the test compound was added into cells, autophagy inhibitor ammonium chloride (NH4Cl, final concentration of 5 mM) was added simultaneously. After continuous treatment for 24 hours, the lipid droplets were stained. […] Therefore, the compound of present disclosure reduced lipid droplets by targeting autophagy of cells.

[4] = test system: lipid droplets in wild type MEF cells; assay: Reduction of OA-induced lipid droplets in wild type MEF cells (BODIPY 493/503 staining); format: cell-based, mouse; conditions: wild type MEF, 24 h; for lipid droplets: 1.5 μM or 5 μM; for amount of lipid droplets / size of lipid droplets: OA-induced
Description: (5) OA-BSA stock solution was prepared into OA-BSA working solution (50× final concentration, 200 μM), and 40 μl of OA-BSA working solution was added to each well to induce lipid droplets. For the non-OA induction group, 40 μl of 10% BSA solution was added to the control well, and the amount of BSA was the same as that of the experimental group.
Compounds were formulated into DMSO stock solutions. Stock compounds were diluted with DMSO into the indicated concentrations of working solutions prior to use in the treatment of cells. After induction of the lipid droplets with OA for the indicated time, the test compounds were added to the cells respectively. Control wells were replaced with the equal volume of DMSO. Unless otherwise stated, the compounds were diluted into 10× solutions using the culture medium and added to the culture medium for 24 hours of incubation. Cells were treated with compounds in a 37° C. incubator with 5% CO2.
(3) The original medium in the multi-well plates was removed, washed and the cells was fixed, 1 ml of the BODIPY solution prepared in (1) was added to each well, and stained for 15 minutes. The staining solution was aspirated and washed with 1×PBS.
(5) The coverslips laid in the multi-well plates were removed, and imaged with the Zeiss 880 confocal microscope after mounted, and analyzed the size and number of lipid droplets with ImageJ.
Wild type MEF cells were cultured in a DMEM culture medium containing 10% FBS. Cells were plated according to the method as described above (12 well plate was plated with aseptic treated slides). When cells grew to a confluence of 60-70%, lipid droplets were induced with OA for 30 h according to the method as described above.
At the time point of 6th hour after initiation of induction, the cells were treated (treated for 24 hours) with Compound 1A or Compound 2A (compound concentrations were 50 μM, 15.8 μM, 5 μM, 1.58 μM, 0.5 μM, 0.158 μM) according to the method as described above.

[5] = test system: lipid droplets in human normal liver cell line QSG7701; assay: Endogenous lipid droplets in human normal liver cell line QSG7701; format: cell-based; conditions: QSG7701, no induction, 5 μM, 24 h
Description: 10% FBS+90% RPMI 1640 culture medium was used for cultivation, cell incubator culture condition of 37° C. and 5% CO2 was used. Cells were plated as 50 thousands/well (12 well plate was plated with aseptic treated slides). When cells grew to a confluence of 80-90%, the compound (Compound 1A or Compound 2A, at a concentration of 5 μM) was added for treatment, and LC3 binding Compound A1, A5, lipid droplet probe Sudan IV as well as DMSO acted as a control. […]. In the compounds of present disclosure, LC3 binding moiety was covalently linked with lipid droplet binding moiety, and thus could achieve the effect of reducing liver cell endogenous lipid droplet.

LC3B = LC3B (Homo sapiens, UniProt Q9GZQ8); assay: MST detection of affinity activity with LC3B; format: binding; set-up: His8 (with TEV site) (N); made in house; host or cells: Escherichia coli BL21(DE3)pLysS; conditions: MST; read-out: Kd (μM), equilibrium dissociation constant between the conjugated compound and LC3B
Description: The recombinant GST-LC3B proteins were prepared and purified, dialyzed into 1×PBS, and then labelled with the red fluorophore with the protein labeling kit RED-NHS (Nanotemper, cat. no. L001).
The MST experiments were performed using the Monolith NT.115 instrument (NanoTemper Technologies). The reaction buffer contains 20 mM HEPES, pH 7.4, 150 mM NaCl, and the protein concentration was 500 nM. The MST data were collected under 40% infrared laser power and 20% light-emitting diode power. The data were analyzed by Nanotemper software.

[6] = test system: lipid droplets in autophagy-deficient MEF cells (Atg5−/−); assay: Lipid droplets in autophagy-deficient MEF cells (Atg5-/-); format: cell-based, mouse; conditions: 5 μM, 24 h
Description: Wild type MEF cells and autophagy-deficient MEF cells (Atg5−/−) were cultured in a DMEM culture medium containing 10% FBS. Cells were plated according to the method as described above (12 well plate was plated with aseptic treated slides). When cells grew to a confluence of 60-70%, lipid droplets were induced with OA for 30 h according to the method as described above. At the time point of 6th hour after initiation of induction, OA induced lipid droplets for 30 h, and the cells were treated (treated for 24 hours) with Compound 1A or Compound 2A according to the method as described above. […] The control wells were replaced with DMSO (treated with DMSO). […] After 26 hours of OA induction for lipid droplets, the culture medium of DMSO treated cells was replaced with EBSS, and starved for 4 hours to induce autophagy, and a slight reduction on lipid droplets was observed relative to cells without starvation treatment. Therefore, lipid droplets can be degraded via cell autophagy. The compound of present disclosure could promote the degradation of lipid droplets via cell autophagy.

[7] = test system: lipid droplets in SH-SY5Y cells; assay: Reduction of OA-induced lipid droplets in SH-SY5Y cells; format: cell-based, human; conditions: for amount of lipid droplet: 1.58 μM-50 μM; for amount of lipid droplet / size of lipid droplet: 24 h; for size of lipid droplet: 5 μM-50 μM; for lipid droplet levels: concentrations as indicated in FIG. 18, 24 h
Text: The reduction of lipid droplets in SH-SY5Y cells by Compound 1A and Compound 2A was detected by a method that was similar to Example 2, and the result was shown in FIG. 18.
The effects of unconjugated LC3 binding Compound A1, A5 and unconjugated lipid droplet probe ORBB […] respectively on lipid droplets in SH-SY5Y cells (FIG. 20A) and MEF cells (FIG. 20B) were detected by a method similar to Example 2.

[8] = test system: lipid droplets in 3T3-L1 fat precursor cell differentiated fat cells; assay: Lipid droplets in 3T3-L1 fat precursor cell differentiated fat cells; format: cell-based, mouse; conditions: 3T3-L1 differentiated fat cells, 24 h; for effect of the compound on lipid droplets under the treatment of NH4Cl: 5 μM + NH4Cl 5 mM; for amount of lipid droplets / size of lipid droplets: 5 μM
[9] = test system: lipid droplets in wild type MEF cells; assay: Reduction of OA-induced lipid droplets in wild type MEF cells (BODIPY 493/503 staining); format: cell-based, mouse
wild type MEF cells = assay: Integrity of nuclear membrane, cell membrane and mitochondria in MEF cells; format: cell-based, mouse; conditions: 5 μM, 24 h
Description: Cells were blocked in 4% BSA+0.1% Triton X-100 in 1×PBS for 30 min and incubated overnight at 4° C. with primary antibody goat polyclonal Lamin B1 (1:200, Santa Cruz Biotechnology, cat. no. sc-6216, RRID: AB_648156), washed with blocking buffer, and incubated with secondary antibody (1:500, Alexa Flour488 donkey anti-goat, Jackson immunoResearch Lab, cat.no. 705-547-003, RRID: AB_2340431) at room temperature for 1 hour. The samples were washed three times and stained with DAPI for 10 min at room temperature.
MitoTracker staining and CellMask staining were performed the same as LysoTracker staining, except using MitoTracker™ Green FM (500 nM, Thermo Fisher, cat. no. M7514) staining for 3 hours to detect total mitochondria; MitoTracker™ Red CMXRos. (500 nM, Thermo Fisher, cat. no. M7512) staining for 3 hours to detect healthy mitochondria; and CellMask™ (2000×, CellMask™ Plasma Membrane Stains, Thermo Fisher, cat. no. C10046) staining for 5 minutes at 37° C.
Wild type MEF cells were treated with conjugated compound (Compound 1A, Compound 2A, Compound 3A or Compound 4A at a concentration of 5 μM) according to a method similar to Example 2. […]

| Compound | reduction of lipid droplets induced by conjugated compounds after knockout of LC3B gene [1] | ratio of colocalization of red and green aggregation point (autophagosome-lipid droplet) [2] | lipid droplets [3] | lipid droplets [4] | amount of lipid droplets ([4]; 1.58 μM-50 μM) | size of lipid droplets ([4]; 1.58 μM-50 μM) | endogenous lipid droplets (amount) [5] | Kd (LC3B) [µM] | lipid droplets [6] | amount of lipid droplet [7] | size of lipid droplet [7] | lipid droplet levels [7] | effect of the compound on lipid droplets under the treatment of NH4Cl [8] | amount of lipid droplets [8] | size of lipid droplets [8] | amount of lipid droplets ([4]; 0.5 μM-50 μM) | size of lipid droplets ([4]; 5 μM-50 μM) | lipid droplets ([9]; DMSO treated cells, 5 mM NH4Cl, 24 h, relative to cells not treated with NH4Cl) | amount or size of lipid droplets ([9]; wild type MEF, autophagy blocker NH4Cl) | integrity of nuclear membrane, cell membrane, mitochondrion membrane (wild type MEF cells) |
| --- | --- | --- | --- | --- | --- | --- | --- | --- | --- | --- | --- | --- | --- | --- | --- | --- | --- | --- | --- | --- |
| Cc1ccccc1/N=N/c1ccc(/N=N/c2c(OCCCCCCCCCCOc3cc(O)cc4oc(=O)cc(-c5ccccc5)c34)ccc3ccccc23)c(C)c1 [Compound 2A, 7-hydroxy-5-((10-((1-((E)-(2-methyl-4-((E)-o-methylphenyldiazenyl)phenyl)diazenyl)naphthalen-2-yl)oxy)decyl)oxy)-4-phenyl-2H-chromen-2-one] | largely blocked | significantly increased | does not change; also recorded: did not reduce | significantly reduced | significantly reduced | significantly reduced | significantly reduce; also recorded: could reduce | 5.37 | does not change; also recorded: ineffective | significantly reduce | significantly reduce | significantly reduces | blocked | could reduce | could change | – | – | – | – | – |
| 3-(3,5-dibromo-4-hydroxylbenzylidene)-5-iodo-1-(10-((1-((E)-(4-((E)-phenyldiazenyl)phenyl)diazenyl)naphthalen-2-yl)oxy)decyl)indol-2-one [Compound 1A] | largely blocked | significantly increased | does not change; also recorded: did not reduce | significantly reduced | – | – | significantly reduce; also recorded: could reduce | 3.56 | does not change; also recorded: ineffective | significantly reduce | significantly reduce | significantly reduces | blocked | could reduce | could change | significantly reduced | significantly reduced | – | – | – |
| Cl.N [NH4Cl, ammonium chloride] | – | – | – | – | – | – | – | – | – | – | – | – | – | – | – | – | – | slight increase | slightly increased | – |
| Cc1ccccc1/N=N/c1ccc(/N=N/c2c(OCCCCCCCCCCOc3cc(O)c4c(-c5ccccc5)cc(=O)oc4c3)ccc3ccccc23)c(C)c1 [Compound 2] | – | – | – | – | – | – | – | – | – | – | – | – | – | – | – | – | – | – | – | Did not Affect |
